Patent US5177059A, “Polymyxin B conjugates” (Sandoz Ltd., priority 1990, dated 1993)

Assays:
Assay type in all cases: in vivo
[1] = system: non-sensitized mice; assay: PMB (native and conjugated forms) induced lethality, i.p.; conditions: i.p. injection, lethality monitored for 7 days
Protocol: B. PMB (native and conjugated forms) induced lethality
PMB (native and conjugated forms) are evaluated for their inherent toxicity in non-sensitized mice. Male CB57BL/c mice (18-22 g, Jackson Labs) are used throughout this study. Animals are given either native PMB or conjugated PMB by intraperitoneal injection (0.5 ml/animal) and lethality monitored for 7 days. The LD100 is determined by varying the dose of PMB (native and conjugated forms) that result in 100% lethality. From 10-20 animals are used for each dose.

[2] = system: endotoxin (0111B4); assay: PMB anti-endotoxin evaluations: protection from endotoxin-induced lethality in galactosamine-hypersensitized mice
Protocol: A. Endotoxin-induced lethality
Male CB57BL/c mice (18-22 g, Jackson Labs) are used throughout this study. Animals are given endotoxin (0111B4 from List Biologicals, Palo Alto, Calif.) and galactosamine to hypersensitize, as described in Galanos et al., 1979. Proc. Natl. Acad. Sci. USA 76: 5939. The endotoxin and galactosamine (320 mg/kg) are injected intraperitoneally in 0.5 ml pyrogen-free isotonic saline per animal between 13:00 and 15:00 to avoid diurnal variation. From a dose-response study, it is determined that 0.01 mg/kg endotoxin produces 85-95% lethality. Animals are observed each day for 6 days after injection.
C. PMB anti-endotoxin evaluations
PMB (native and conjugated forms) are evaluated for their ability to neutralize endotoxin by either pre-mixing with endotoxin for 60 minutes before i.p. injection or by coadministration of the substances as a single i.p. injection. While the concentration of the PMB (native and conjugated forms) are varied, the volume of each injection is kept constant at 0.5 ml per animal. The protection by the conjugated PMB was compared to the native PMB (in terms of mg protein/kg). Controls (endotoxin, galactosamine, and vehicle) are included as well in each study. Each group has between 10-17 animals. […]
The Therapeutic Index (TI) for PMB (native and conjugated) forms is determined by dividing the LD100 by the PD100. […]

[3] = system: normal test animal; assay: i.v. toxicity (LD0, LD100), lethality monitored over 7 days
Text: LD0 is the highest non-toxic dose of PMB or its conjugate.
LD100 is the dose of PMB or its conjugated form which results in 90-100% lethality when injected into a normal test animal.
The "ultra pure" PMB-conjugate has a suprising reduction in toxicity as compared with native PMB. […] Comparisons in the table below are made between the highest non-toxic dose of PMB (native or conjugated)
^1 PMB (native or conjugate) given by i.v. injection and lethality
monitored over 7 days. LD0 is the highest nontoxic dose which can be
injected into a normal test animal.

[4] = system: E.coli 0111B4 endotoxin; assay: i.v. protection against LD90 endotoxin challenge (endotoxin-induced lethality test); conditions: i.v. injection 1-3 minutes before an LD90 i.p. injection of E.coli 0111B4 endotoxin (0.5 μg/kg)
Protocol: The resulting "ultra pure" PMB-conjugate is compared to native PMB in an endotoxin-induced leathality test as described in Example 3C supra.
At 1 mg/kg i.v., the ultra-pure PMB-conjugate gave >70% protection against a LD90 endotoxin challenge for at least 6 hours. […] Therefore the PMB-conjugate is suitable for prophylactic use.
^2 PMB (native or conjugate) given by i.v. injection 1-3 minutes
before an LD90 i.p. injection of E.coli 0111B4 endotoxin (0.5

Substance: polymyxin B [Native PMB]
- LD100 [1]: 25 mg/kg
- PD100 ([2]; PMB or conjugate allowed to react with the endotoxin for 60 min before i.p. injection): 2 mg/kg
- PD100 ([2]; i.p., dose giving >95% survival, pre-mixing or coadministration with endotoxin not stated for the row): 2 mg/kg
- LD100 ([3]; i.v.): 9.5 mg/kg
- LD0 (highest non-toxic dose) ([3]; i.v. injection, lethality monitored over 7 days): 5 mg/kg
- PD100 [4]: 0.1 mg/kg
